# Values of other authors in patent US20020179884A1, “Disinfecting and deodorizing agent” (priority 2000, published 2002).
# Conditions: 25° C.
row,SMILES,pKa25
1,O=P(O)(O)OP(=O)(O)OP(=O)(O)O [sodium tripolyphosphate],9.70
2,O=BOB(O)OB(O)OB=O [sodium tetraborate],9.24
3,O=C([O-])O.[Na+] [sodium hydrogencarbonate],10.33
4,O=P([O-])([O-])OP(=O)([O-])O.[Na+].[Na+].[Na+] [trisodium pyrophosphate],8.95
